In PMC4521712, “Enhanced Bacterial α(2,6)-Sialyltransferase Reaction through an Inhibition of Its Inherent Sialidase Activity by Dephosphorylation of Cytidine-5'-Monophosphate” (PLoS ONE, 2015):

Assays:
Type in all cases: biochemical
Pd-ST [1] = target: T1, Pd-ST (Photobacterium damselae, UniProt O66375); assay: HPLC of AA-lactose released from AA-6'-sialyllactose (sialidase activity); settings: 1 mM, 50 μM AA-6'-sialyllactose, 100 mM sodium phosphate pH 6.0, 37°C, 2 h
T1 construct: gene bst; residues 16-497 with catalytic domain, pColdII N-terminal His-tag (kept), codon-optimised gene, E. coli BL21, Ni-NTA
T1 sequence (O66375 16-497): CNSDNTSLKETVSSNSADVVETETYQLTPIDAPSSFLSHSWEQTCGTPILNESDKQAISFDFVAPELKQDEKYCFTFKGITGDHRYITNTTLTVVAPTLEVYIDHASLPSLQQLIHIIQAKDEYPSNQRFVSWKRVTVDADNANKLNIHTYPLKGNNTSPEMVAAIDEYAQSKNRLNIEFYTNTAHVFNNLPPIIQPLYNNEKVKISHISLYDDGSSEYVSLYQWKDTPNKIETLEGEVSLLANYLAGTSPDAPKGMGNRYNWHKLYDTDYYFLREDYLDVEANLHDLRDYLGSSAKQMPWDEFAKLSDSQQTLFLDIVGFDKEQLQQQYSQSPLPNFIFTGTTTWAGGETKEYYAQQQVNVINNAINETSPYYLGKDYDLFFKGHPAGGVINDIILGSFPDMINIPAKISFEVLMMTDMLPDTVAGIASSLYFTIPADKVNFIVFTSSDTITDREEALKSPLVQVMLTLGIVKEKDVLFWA

P224-ST [2] = target: T2, P224-ST (Photobacterium sp. JT-ISH-224, UniProt A8QYL1); assay: as above; settings: 1 mM, 50 μM AA-6'-sialyllactose, 100 mM sodium phosphate pH 6.0, 37°C, 2 h
T2 construct: gene pst6-224; residues 18-514 with catalytic domain, pColdII N-terminal His-tag (kept), codon-optimised gene, E. coli BL21, Ni-NTA
T2 sequence (A8QYL1 18-514): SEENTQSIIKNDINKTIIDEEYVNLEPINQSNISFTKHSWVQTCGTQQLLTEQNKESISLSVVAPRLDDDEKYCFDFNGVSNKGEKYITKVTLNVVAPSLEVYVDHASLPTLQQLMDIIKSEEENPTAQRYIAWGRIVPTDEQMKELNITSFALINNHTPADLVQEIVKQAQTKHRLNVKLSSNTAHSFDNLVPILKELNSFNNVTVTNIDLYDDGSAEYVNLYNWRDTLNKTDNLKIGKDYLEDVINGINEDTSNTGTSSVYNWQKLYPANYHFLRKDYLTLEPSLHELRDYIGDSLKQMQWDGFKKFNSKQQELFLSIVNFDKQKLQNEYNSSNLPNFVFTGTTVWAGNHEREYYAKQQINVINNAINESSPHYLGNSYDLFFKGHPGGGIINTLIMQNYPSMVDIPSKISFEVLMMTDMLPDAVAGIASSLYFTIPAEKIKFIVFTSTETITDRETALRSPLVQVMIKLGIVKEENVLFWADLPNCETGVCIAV

P145-ST [3] = target: T3, P145-ST (Photobacterium leiognathi, UniProt A8R0T5); assay: as above; settings: inhibitor of sialidase activity, 0.01-10 mM; 50 μM AA-6'-sialyllactose, 100 mM sodium phosphate pH 6.0, 37°C, 2 h
T3 construct: gene plst6; residues 16-497 with catalytic domain, pColdII N-terminal His-tag (kept), codon-optimised gene, E. coli BL21, Ni-NTA
T3 sequence (A8R0T5 16-497): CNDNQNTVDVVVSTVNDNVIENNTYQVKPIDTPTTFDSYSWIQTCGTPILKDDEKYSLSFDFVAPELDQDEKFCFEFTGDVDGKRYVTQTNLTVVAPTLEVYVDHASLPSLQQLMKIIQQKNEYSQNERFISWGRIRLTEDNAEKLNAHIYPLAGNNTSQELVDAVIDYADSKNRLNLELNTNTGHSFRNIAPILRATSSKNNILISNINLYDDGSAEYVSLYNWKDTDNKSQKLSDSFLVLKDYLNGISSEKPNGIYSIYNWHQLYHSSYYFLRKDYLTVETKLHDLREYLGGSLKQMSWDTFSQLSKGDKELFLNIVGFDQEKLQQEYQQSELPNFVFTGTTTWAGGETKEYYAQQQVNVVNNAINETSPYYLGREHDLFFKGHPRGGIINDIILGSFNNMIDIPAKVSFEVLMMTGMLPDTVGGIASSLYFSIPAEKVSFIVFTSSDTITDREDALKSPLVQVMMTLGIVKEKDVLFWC

P145-ST [4] = target: T3, P145-ST; assay: as above; settings: 50 μM AA-6'-sialyllactose, 100 mM sodium phosphate pH 6.0, 37°C, 2 h
P224-ST [5] = target: T2, P224-ST; assay: HPLC of sialylated AA-glycans, Michaelis-Menten fit; settings: sialyltransferase; 0.5 mM CMP-Neu5Ac, 100 mM Tris-HCl pH 8.0, 30°C, 5 min; labelled compound; read-out: apparent Km
Text: HPLC of sialylated AA-glycans, Michaelis-Menten fit on P224-ST | The apparent Km values of Pd-, P224-, and P145-ST for G2-AA substrate are […]

P145-ST [6] = target: T3, P145-ST; assay: as above; settings: sialyltransferase; 0.5 mM CMP-Neu5Ac, 100 mM Tris-HCl pH 8.0, 30°C, 5 min; labelled compound; read-out: apparent Km
Text: HPLC of sialylated AA-glycans, Michaelis-Menten fit on P145-ST | The apparent Km values of Pd-, P224-, and P145-ST for G2-AA substrate are […]

Pd-ST [7] = target: T1, Pd-ST; assay: as above; settings: sialyltransferase; 0.5 mM CMP-Neu5Ac, 100 mM Tris-HCl pH 8.0, 30°C, 5 min; labelled compound; read-out: apparent Km
[8] = inhibitor of sialidase activity
[9] = activator of sialidase activity

Row | SMILES | HPLC of AA-lactose released from AA-6'-sialyllactose (sialidase activity) (Pd-ST [1]; [8]) | HPLC of AA-lactose released from AA-6'-sialyllactose (sialidase activity) (P224-ST [2]; [8]) | HPLC of AA-lactose released from AA-6'-sialyllactose (sialidase activity) (P145-ST [3]) | also measured
1 | Nc1ccn([C@@H]2O[C@H](COP(=O)(O)OP(=O)(O)O)[C@@H](O)[C@H]2O)c(=O)n1 [CDP] | all other tested nucleotides including CDP, CTP, and cytidine showed decreasing effects | all other tested nucleotides including CDP, CTP, and cytidine showed decreasing effects | CTP and CDP inhibited sialidase activity in a concentration-dependent manner | 
2 | Nc1ccn([C@@H]2O[C@H](COP(=O)(O)O)[C@@H](O)[C@H]2O)c(=O)n1 [CMP] |  |  |  | HPLC of AA-lactose released from AA-6'-sialyllactose (sialidase activity) (Pd-ST [1]; [9]): the addition of CMP increased the sialidase activity; HPLC of AA-lactose released from AA-6'-sialyllactose (sialidase activity) (P224-ST [2]; [9]): the addition of CMP increased the sialidase activity; % lactose formed at 10 mM (P145-ST [4]; [9]): 43%
3 | Nc1ccn([C@@H]2O[C@H](COP(=O)(O)OP(=O)(O)OP(=O)(O)O)[C@@H](O)[C@H]2O)c(=O)n1 [CTP] | all other tested nucleotides including CDP, CTP, and cytidine showed decreasing effects | all other tested nucleotides including CDP, CTP, and cytidine showed decreasing effects |  | % lactose formed at 10 mM (P145-ST [4]; [8]): 2%
4 | CC(=O)N[C@H]1[C@H](O[C@@H]([C@H](O)[C@H](CNc2ccccc2C(=O)O)NC(C)=O)[C@H](O)CO)O[C@H](CO)[C@@H](O[C@@H]2O[C@H](CO[C@H]3O[C@H](CO)[C@@H](O)[C@H](O)[C@@H]3O[C@@H]3O[C@H](CO)[C@@H](O[C@@H]4O[C@H](CO)[C@H](O)[C@H](O)[C@H]4O)[C@H](O)[C@H]3NC(C)=O)[C@@H](O)[C@H](O[C@H]3O[C@H](CO)[C@@H](O)[C@H](O)[C@@H]3O[C@@H]3O[C@H](CO)[C@@H](O[C@@H]4O[C@H](CO)[C@H](O)[C@H](O)[C@H]4O)[C@H](O)[C@H]3NC(C)=O)[C@@H]2O)[C@@H]1O [G2-AA, AA-labeled G2 glycan] |  |  |  | Km (P224-ST [5]): 39.2 ± 4.7 µM; Km (P145-ST [6]): 27.8 ± 5.8 µM; Km (Pd-ST [7]): 36.1 ± 4.9 µM
5 | Nc1ccn([C@@H]2O[C@H](CO)[C@@H](O)[C@H]2O)c(=O)n1 [cytidine] | all other tested nucleotides including CDP, CTP, and cytidine showed decreasing effects | all other tested nucleotides including CDP, CTP, and cytidine showed decreasing effects | cytidine appeared to inhibit sialidase activity in an on-and-off mode | 
